Measurements from patent publication US20250188092A1, “RIFAMYCIN ANALOGS” (THE REGENTS OF THE UNIVERSITY OF MICHIGAN, priority 2021, published 2025).
Read-outs that look alike come from different tables or passages of the source.

Tests used:
[1] = target: T1, E. coli D516V (RIF^R) RNAP (Escherichia coli, UniProt P0A8V2, D516V); assay: biochemical
T1 construct: made in house

[2] = target: T2, E. coli S531L (RIF^R) RNAP (Escherichia coli, UniProt P0A8V2, S531L); assay: biochemical
T2 construct: made in house

MTB H37Rv ATCC 27294 = assay: MIC, microplate Alamar Blue assay (MABA); format: cell-based, Mycobacterium tuberculosis; conditions: for MIC90: MTB H37Rv ATCC 27294, microplate Alamar Blue assay, lowest concentration giving ≥90% reduction in fluorescence
E. coli WT RNAP = target: T3, E. coli WT RNAP (Escherichia coli, UniProt P0A8V2); assay: biochemical
T3 construct: made in house

VERO cells (ATCC CRL-81) = assay: Vero cell toxicity; format: cell-based; conditions: 72 hours exposure
Protocol: Cytotoxicity for a mammalian cell line was determined by exposing VERO cells (ATCC CRL-81) to serial dilutions of test compounds for 72 hours, followed by addition of resazurin and measurement of fluorescence after 4 hours incubation (Choules, et al., Antimnicrob. Agents Chemother. 2019, 63, e02204-02218).

M. tuberculosis H37Rv = assay: Minimum bactericidal concentration (MBC, CFU Assay); format: cell-based, Mycobacterium tuberculosis
[3] = target: T4, human pregnane X receptor (hPXR) (Homo sapiens, UniProt O75469)
T4 sequence (O75469 1-434): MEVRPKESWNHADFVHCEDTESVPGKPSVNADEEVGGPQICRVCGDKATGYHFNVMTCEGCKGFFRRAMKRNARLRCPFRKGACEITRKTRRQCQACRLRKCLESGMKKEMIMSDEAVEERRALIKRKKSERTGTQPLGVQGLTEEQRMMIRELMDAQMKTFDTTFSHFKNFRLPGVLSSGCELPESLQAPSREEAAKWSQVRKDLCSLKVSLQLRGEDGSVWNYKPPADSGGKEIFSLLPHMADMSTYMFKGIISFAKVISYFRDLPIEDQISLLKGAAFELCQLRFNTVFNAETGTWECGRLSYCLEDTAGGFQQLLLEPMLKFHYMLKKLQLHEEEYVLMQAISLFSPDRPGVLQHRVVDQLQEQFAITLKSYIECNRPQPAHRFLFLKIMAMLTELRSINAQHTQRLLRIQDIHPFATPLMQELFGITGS

CO[C@H]1/C=C/O[C@@]2(C)Oc3c(C)c(O)c4c(=O)c(c5oc6cc(N7CCN(CC(C)C)CC7)cc(OCc7ccc(CN8CCN(C(=O)CN9CCOCC9)CC8)cc7)c6nc-5c4c3C2=O)NC(=O)/C(C)=C\C=C\[C@H](C)[C@H](O)[C@@H](C)[C@@H](O)[C@@H](C)[C@H](OC(C)=O)[C@@H]1C [Compound 17d, (7S,9E,11S,12R,13S,14R,15R,16R,17S,18S,19E,21Z)-2,15,17-Trihydroxy-11-methoxy-3,7,12,14,16,18,22-heptamethyl-30-[4-(2-methylpropyl)piperazin-1-yl]-32-{[4-({4-[2-(morpholin-4-yl)acetyl]piperazin-1-yl}methyl)phenyl]methoxy}-6,23,37-trioxo-8,27,38-trioxa-24,34-diazahexacyclo[23.11.1.1^4,7.0^5,36.0^26,35.0^28,33]octatriaconta-1(36)2,4,9,19,21,25,28,30,32,34-undecaen-13-yl acetate]
IC50 [1]: 7.3 µM | IC50 [2]: 32 µM | MIC90 (MTB H37Rv ATCC 27294; Mycobacterium tuberculosis): < 0.016 µM | DPX2 Viability @ 6.25 μM (DPX2 cells; 6.25 μM, 24 h): 104% | DPX2 Viability @ 25 μM (DPX2 cells; human): 84% | IC50 (E. coli WT RNAP): 0.016 µM | IC50 (VERO cells (ATCC CRL-81); Chlorocebus sabaeus, Vero): > 8 µM | MBC99 Day 7 (CFU Assay) MBC99 Rel to RMP (M. tuberculosis H37Rv; CFU Assay MBC99 relative to rifampin (RMP = 1)): 0.15 | MBC (M. tuberculosis H37Rv; Mycobacterium tuberculosis, 168 h, Day 7, M. tuberculosis H37Rv, ≥99% reduction in colony forming units, read-out: MBC99 Day 7 (CFU Assay) MBC99): 0.02 µM

CO[C@H]1/C=C/O[C@@]2(C)Oc3c(C)c(O)c4c(=O)c(c5oc6cc(N7CCN(C(=O)c8ccc(-c9ccc(C(N)=O)cc9)cc8)CC7)cc(OCc7ccc(CN8CCOCC8)cc7)c6nc-5c4c3C2=O)NC(=O)/C(C)=C\C=C\[C@H](C)[C@H](O)[C@@H](C)[C@@H](O)[C@@H](C)[C@H](OC(C)=O)[C@@H]1C [Compound 17t, (7S,9E,11S,12R,13S,14R,15R,16R,17S,18S,19E,21Z)-30-(4-{[4-(4-carbamoylphenyl)-phenyl]carbonyl}piperazin-1-yl)-2,15,17-trihydroxy-11-methoxy-3,7,12,14,16,18,22-heptamethyl-32-{[4-(morpholin-4-ylmethyl)phenyl]methoxy}-6,23,37-trioxo-8,27,38-trioxa-24,34-diazahexacyclo[23.11.1.1^4,7.0^5,36.0^26,35.0^28,33]octatriaconta-1,3,5(36)9,19,21,25,28,30,32,34-undecaen-13-yl acetate]
MIC90 MABA Rel to RMP (MTB H37Rv ATCC 27294): 0.6 | MIC90 (MTB H37Rv ATCC 27294): 0.032 µM | DPX2 Viability @ 6.25 μM (DPX2 cells; 6.25 μM, 24 h): 100% | hPXR Fold Act. (lucif) @ 6.25 μM ([3]; 6.25 μM, 24 h): 1.3 fold | hPXR Fold Act. (lucif) @ 25 μM ([3]; 25 μM, 24 h): 2.1 fold | IC50 (VERO cells (ATCC CRL-81)): 55 µM

CO[C@H]1/C=C/O[C@@]2(C)Oc3c(C)c(O)c4c(=O)c(c5oc6cc(C)cc(N7CCN(C)CC7)c6nc-5c4c3C2=O)NC(=O)/C(C)=C\C=C\[C@H](C)[C@H](O)[C@@H](C)[C@@H](O)[C@@H](C)[C@H](OC(C)=O)[C@@H]1C [Compound 30a, (7S,9E,11S,12R,13S,14R,15R,16R,17S,18S,19E,21Z)-2,15,17-Trihydroxy-11-methoxy-3,7,12,14,16,18,22,30-octamethyl-32-(4-methylpiperazin-1-yl)-6,23,37-trioxo-8,27,38-trioxa-24,34-diazahexacyclo[23.11.1.1^4,7.0^5,36.0^26,35.0^28,33]octatriaconta-1(36)2,4,9,19,21,25,28,30,32,34-undecaen-13-yl acetate]
MIC90 MABA Rel to RMP (MTB H37Rv ATCC 27294): <0.6 | MIC90 (MTB H37Rv ATCC 27294): <0.016 µM | DPX2 Viability @ 6.25 μM (DPX2 cells): 92% | DPX2 Viability @ 25 μM (DPX2 cells): 47% | hPXR Fold Act. (lucif) @ 6.25 μM [3]: 4.6 fold | hPXR Fold Act. (lucif) @ 25 μM [3]: 20.4 fold | IC50 (VERO cells (ATCC CRL-81)): > 8 µM
